Earlier results, collected in patent US20200170950A1, “COMPOSITIONS COMPRISING A CANNABINOID OR A CANNABIS-DERIVED COMPOUND, METHODS OF MAKING AND USE” (priority 2018, published 2020).

What was measured:
CB2 receptor = CB2 receptor (Homo sapiens, UniProt P34972)
5-HT1A receptor = target: T1, 5-HT1A receptor (Homo sapiens, UniProt P08908)
T1 sequence (P08908 1-422): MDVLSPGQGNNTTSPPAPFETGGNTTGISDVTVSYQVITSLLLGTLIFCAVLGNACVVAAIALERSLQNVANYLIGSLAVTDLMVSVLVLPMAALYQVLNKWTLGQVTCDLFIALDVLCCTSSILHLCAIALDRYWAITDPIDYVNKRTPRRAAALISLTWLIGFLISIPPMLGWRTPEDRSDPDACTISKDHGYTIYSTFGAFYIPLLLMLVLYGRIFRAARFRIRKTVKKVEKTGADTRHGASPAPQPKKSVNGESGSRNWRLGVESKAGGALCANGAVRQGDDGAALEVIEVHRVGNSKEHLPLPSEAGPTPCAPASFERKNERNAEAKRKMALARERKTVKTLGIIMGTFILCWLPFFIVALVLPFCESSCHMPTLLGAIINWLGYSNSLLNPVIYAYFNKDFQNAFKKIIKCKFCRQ

CB1 receptor = CB1 receptor (Homo sapiens, UniProt P21554)
Chain of CB1 receptor (P21554 whole entry): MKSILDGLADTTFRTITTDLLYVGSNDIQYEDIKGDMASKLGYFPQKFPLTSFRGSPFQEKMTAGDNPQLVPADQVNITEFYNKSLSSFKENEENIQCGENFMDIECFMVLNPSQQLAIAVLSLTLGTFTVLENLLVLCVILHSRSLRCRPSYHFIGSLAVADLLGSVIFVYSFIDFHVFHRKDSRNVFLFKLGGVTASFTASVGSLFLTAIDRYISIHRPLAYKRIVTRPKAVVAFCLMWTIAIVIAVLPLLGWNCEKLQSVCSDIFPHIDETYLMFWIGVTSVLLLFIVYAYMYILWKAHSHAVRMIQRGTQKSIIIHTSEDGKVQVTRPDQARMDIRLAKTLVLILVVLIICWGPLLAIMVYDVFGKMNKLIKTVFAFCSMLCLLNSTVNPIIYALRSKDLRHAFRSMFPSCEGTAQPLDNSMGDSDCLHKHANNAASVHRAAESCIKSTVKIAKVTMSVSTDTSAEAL

Chain of CB2 receptor (P34972 whole entry): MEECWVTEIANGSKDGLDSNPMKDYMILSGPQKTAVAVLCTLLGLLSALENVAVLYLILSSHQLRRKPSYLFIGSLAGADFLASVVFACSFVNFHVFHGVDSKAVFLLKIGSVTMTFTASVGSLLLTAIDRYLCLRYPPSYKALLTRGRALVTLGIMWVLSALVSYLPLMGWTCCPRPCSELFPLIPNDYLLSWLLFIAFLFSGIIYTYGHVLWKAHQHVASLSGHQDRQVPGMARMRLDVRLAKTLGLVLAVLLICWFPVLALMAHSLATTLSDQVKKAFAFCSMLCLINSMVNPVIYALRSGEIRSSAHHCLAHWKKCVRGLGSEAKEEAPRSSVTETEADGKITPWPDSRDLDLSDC

Structure (SMILES) | activity/affinity at CB2 receptor (CB2 receptor) | affinity, α2-adrenergic receptor agonist (α2-adrenergic receptor) | affinity, 5-HT1A receptor antagonist (5-HT1A receptor) | activity/affinity at CB1 receptor (CB1 receptor)
CCCCCc1cc(O)c(C/C=C(\C)CCC=C(C)C)c(O)c1 [CBG, Cannabigerol] | antagonist | high affinity | moderate affinity | low affinity
CCCCCc1cc(O)c2c(c1)OC(C)(C)c1ccc(C)cc1-2 [CBN, Cannabinol] | higher affinity |  |  | partial agonist
